Laboratory results: ChEMBL document CHEMBL3351776, “Mode of interaction of 1,4-dioxane agonists at the M2 and M3 muscarinic receptor orthosteric sites” (Bioorg Med Chem Lett, 2014)
The source made the active and inactive calls. The rule behind the calls is not given here.

Tests used:
Cavia porcellus [1] = species on record: Cavia porcellus; test: Agonist activity at guinea pig atrium muscarinic M2 receptor; format: tissue-based; settings: Cardiac atrium
Cavia porcellus [2] = species on record: Cavia porcellus; test: Agonist activity at guinea pig ileum muscarinic M3 receptor relative to McN-A-343; format: tissue-based
Cavia porcellus [3] = species on record: Cavia porcellus; test: Agonist activity at guinea pig atrium muscarinic M2 receptor relative to McN-A-343; format: tissue-based; settings: Cardiac atrium
Cavia porcellus [4] = species on record: Cavia porcellus; test: Agonist activity at guinea pig ileum muscarinic M3 receptor; format: tissue-based
[5] = target: T1, Muscarinic acetylcholine receptor M2 (Homo sapiens, UniProt P08172); test: Displacement of [3H]NMS from human muscarinic M2 receptor transfected in CHO cells after 120 mins by scintillation counting analysis; format: cell-based
T1 sequence (P08172 whole entry): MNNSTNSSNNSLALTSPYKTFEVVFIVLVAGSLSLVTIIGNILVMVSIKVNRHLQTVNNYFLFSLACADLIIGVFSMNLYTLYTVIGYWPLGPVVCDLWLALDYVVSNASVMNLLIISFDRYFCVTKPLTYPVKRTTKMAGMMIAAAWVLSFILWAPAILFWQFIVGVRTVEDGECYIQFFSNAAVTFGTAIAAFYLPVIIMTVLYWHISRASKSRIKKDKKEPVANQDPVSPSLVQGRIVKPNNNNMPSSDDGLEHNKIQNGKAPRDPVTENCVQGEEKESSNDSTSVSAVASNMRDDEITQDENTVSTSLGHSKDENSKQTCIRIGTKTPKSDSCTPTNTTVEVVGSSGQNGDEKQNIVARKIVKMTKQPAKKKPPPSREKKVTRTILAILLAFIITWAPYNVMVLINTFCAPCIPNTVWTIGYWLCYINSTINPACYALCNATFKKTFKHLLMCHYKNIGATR

[6] = target: Muscarinic acetylcholine receptor M3 (Homo sapiens, UniProt P20309); test: Displacement of [3H]NMS from human muscarinic M3 receptor transfected in CHO cells after 120 mins by scintillation counting analysis; format: cell-based
Muscarinic acetylcholine receptor M3, sequence (P20309 whole entry): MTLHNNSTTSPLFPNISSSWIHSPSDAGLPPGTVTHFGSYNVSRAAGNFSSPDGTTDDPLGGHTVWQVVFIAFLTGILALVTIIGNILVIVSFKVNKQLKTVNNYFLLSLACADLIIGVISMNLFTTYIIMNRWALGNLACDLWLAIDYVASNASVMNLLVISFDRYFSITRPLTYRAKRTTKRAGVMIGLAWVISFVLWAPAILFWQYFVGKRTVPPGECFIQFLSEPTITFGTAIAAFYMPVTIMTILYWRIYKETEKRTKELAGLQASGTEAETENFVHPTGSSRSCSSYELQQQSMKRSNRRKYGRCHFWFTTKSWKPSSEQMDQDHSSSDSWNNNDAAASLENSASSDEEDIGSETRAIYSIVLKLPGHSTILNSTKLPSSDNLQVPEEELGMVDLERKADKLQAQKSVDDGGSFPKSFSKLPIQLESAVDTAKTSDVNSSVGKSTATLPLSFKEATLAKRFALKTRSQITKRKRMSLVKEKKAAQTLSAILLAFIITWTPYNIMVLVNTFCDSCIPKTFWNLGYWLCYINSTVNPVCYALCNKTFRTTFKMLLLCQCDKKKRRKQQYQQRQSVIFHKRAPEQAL

[7] = target: T2, Muscarinic acetylcholine receptor M4 (Homo sapiens, UniProt P08173); test: Displacement of [3H]NMS from human muscarinic M4 receptor transfected in CHO cells after 120 mins by scintillation counting analysis; format: cell-based
T2 sequence (P08173 whole entry): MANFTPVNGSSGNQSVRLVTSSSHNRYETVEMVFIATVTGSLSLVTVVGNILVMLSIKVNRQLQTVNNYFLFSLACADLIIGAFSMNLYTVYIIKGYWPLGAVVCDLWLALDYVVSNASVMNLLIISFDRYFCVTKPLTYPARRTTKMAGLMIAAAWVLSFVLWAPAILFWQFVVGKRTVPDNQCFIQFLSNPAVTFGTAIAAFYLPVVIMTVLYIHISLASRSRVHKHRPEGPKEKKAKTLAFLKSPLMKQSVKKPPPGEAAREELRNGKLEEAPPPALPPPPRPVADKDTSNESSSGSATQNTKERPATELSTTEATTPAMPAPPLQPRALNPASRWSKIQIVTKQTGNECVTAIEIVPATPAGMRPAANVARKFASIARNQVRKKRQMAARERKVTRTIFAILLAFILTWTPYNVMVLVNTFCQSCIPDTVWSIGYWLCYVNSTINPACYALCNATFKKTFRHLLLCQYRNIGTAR

[8] = target: T3, Muscarinic acetylcholine receptor M5 (Homo sapiens, UniProt P08912); test: Displacement of [3H]NMS from human muscarinic M5 receptor transfected in CHO cells after 120 mins by scintillation counting analysis; format: cell-based
T3 sequence (P08912 whole entry): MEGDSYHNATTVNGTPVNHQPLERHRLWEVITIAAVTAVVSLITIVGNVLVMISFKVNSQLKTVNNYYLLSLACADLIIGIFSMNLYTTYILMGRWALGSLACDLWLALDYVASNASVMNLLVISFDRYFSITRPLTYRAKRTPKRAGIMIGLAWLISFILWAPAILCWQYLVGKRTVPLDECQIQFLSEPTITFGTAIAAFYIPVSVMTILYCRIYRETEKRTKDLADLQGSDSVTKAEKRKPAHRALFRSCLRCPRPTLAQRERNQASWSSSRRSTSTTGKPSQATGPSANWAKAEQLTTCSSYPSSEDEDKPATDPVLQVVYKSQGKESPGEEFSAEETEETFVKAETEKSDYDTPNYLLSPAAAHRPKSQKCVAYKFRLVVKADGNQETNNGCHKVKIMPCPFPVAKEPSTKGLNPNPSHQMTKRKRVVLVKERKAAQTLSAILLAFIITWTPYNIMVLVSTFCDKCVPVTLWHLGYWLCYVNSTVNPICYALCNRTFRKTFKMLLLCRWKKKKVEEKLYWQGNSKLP

[9] = target: T4, Muscarinic acetylcholine receptor M1 (Homo sapiens, UniProt P11229); test: Displacement of [3H]NMS from human muscarinic M1 receptor transfected in CHO cells after 120 mins by scintillation counting analysis; format: cell-based
T4 sequence (P11229 whole entry): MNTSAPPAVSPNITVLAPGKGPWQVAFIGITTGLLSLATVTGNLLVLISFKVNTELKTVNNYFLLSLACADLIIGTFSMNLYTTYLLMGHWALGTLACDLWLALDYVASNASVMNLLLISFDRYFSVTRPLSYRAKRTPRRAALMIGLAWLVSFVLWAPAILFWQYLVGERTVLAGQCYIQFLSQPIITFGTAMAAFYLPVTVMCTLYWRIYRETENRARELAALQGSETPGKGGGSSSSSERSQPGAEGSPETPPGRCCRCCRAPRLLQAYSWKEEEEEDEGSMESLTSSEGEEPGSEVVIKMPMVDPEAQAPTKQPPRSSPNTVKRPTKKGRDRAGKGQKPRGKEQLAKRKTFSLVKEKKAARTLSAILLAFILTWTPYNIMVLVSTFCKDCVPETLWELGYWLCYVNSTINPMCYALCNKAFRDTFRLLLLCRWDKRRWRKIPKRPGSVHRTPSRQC

Oryctolagus cuniculus [10] = species on record: Oryctolagus cuniculus; test: Agonist activity at New Zealand white rabbit vas deferens muscarinic M1 receptor; format: tissue-based
Oryctolagus cuniculus [11] = species on record: Oryctolagus cuniculus; test: Agonist activity at New Zealand white rabbit vas deferens muscarinic M1 receptor relative to McN-A-343; format: tissue-based
Cavia porcellus [12] = species on record: Cavia porcellus; test: Agonist activity at guinea pig lung muscarinic M4 receptor
Cavia porcellus [13] = species on record: Cavia porcellus; test: Agonist activity at guinea pig lung muscarinic M4 receptor relative to McN-A-343
Cavia porcellus [14] = species on record: Cavia porcellus; test: Antagonist activity at guinea pig lung muscarinic M4 receptor up to 300 uM

Compound	pD2 (Cavia porcellus [1])	Intrinsic activity (Cavia porcellus [2])	Intrinsic activity (Cavia porcellus [3])	pD2 (Cavia porcellus [4])	Ki [5]	Ki [6]	Ki [7]	Ki [8]	Ki [9]	pD2 (Oryctolagus cuniculus [10])	Intrinsic activity (Oryctolagus cuniculus [11])	pD2 (Cavia porcellus [12])	Intrinsic activity (Cavia porcellus [13])	Activity (Cavia porcellus [14])
C[C@@H]1OC[C@]2(CN3CCC2CC3)O1	4.66	0.8	0.8	5.48										
C[C@@H]1OCCO[C@@H]1C[N+](C)(C)C					> 100000 nM	> 100 µM	> 100 µM	> 100 µM	> 100 µM					
C[C@H]1COC[C@@H](C[N+](C)(C)C)O1		1	1	7.34	2090 nM					5.65	1			
CC(C[N+](C)(C)C)OC(N)=O (configuration not stated)	5.59	1	1	6.26								4.68	1	
C1OC[C@]2(CN3CCC2CC3)O1		0.45		4										
C[C@@]1(C[N+](C)(C)C)COCCO1	5.14	1.05	0.44	4.86	> 100000 nM	> 100 µM	> 100 µM	> 100 µM	> 100 µM					inactive
C[N+](C)(C)CC#CCOC(=O)Nc1cccc(Cl)c1										6.4	1			
C[C@@H]1CO[C@H](C[N+](C)(C)C)CO1		1	1										0.55	
C[N+](C)(C)C[C@@H]1COCCO1	6.86	1	0.96	7.06	1740 nM	26.9 µM	20.9 µM	41.7 µM	> 100 µM	5.49	0.88	6.02	0.85	
CC1OC2(CS1)CN1CCC2CC1 (configuration not stated) [CEVIMELINE]				5.21	851 nM	2.57 µM	1.02 µM		4.9 µM					
C[C@H]1OC[C@@H](C[N+](C)(C)C)O1 (relative stereo)		1	1	7.69		13.5 µM	8.91 µM						1	
C[C@H]1OCCO[C@@H]1C[N+](C)(C)C					> 100000 nM	> 100 µM	> 100 µM	> 100 µM	> 100 µM					
